From patent US9862717B2 (Merck Patent GmbH, priority 2014, dated 2018)

molecular target: T1, CDK8/CycC (Homo sapiens, UniProt P49336); experiment: FRET based Lanthascreen binding competition assay for CDK8 inhibitory activity; conditions: CDK8 co-expressed with CycC; class symbols; read-out: IC50
T1 construct: purchased Invitrogen PV4402
How it was run: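 Competition binding of a dye-labeled ATP-competitive Alexa647 probe to CDK8 co-expressed with CycC, Eu-labeled via biotinylated anti-His antibody/streptavidin.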

T1 sequence (P49336 whole entry): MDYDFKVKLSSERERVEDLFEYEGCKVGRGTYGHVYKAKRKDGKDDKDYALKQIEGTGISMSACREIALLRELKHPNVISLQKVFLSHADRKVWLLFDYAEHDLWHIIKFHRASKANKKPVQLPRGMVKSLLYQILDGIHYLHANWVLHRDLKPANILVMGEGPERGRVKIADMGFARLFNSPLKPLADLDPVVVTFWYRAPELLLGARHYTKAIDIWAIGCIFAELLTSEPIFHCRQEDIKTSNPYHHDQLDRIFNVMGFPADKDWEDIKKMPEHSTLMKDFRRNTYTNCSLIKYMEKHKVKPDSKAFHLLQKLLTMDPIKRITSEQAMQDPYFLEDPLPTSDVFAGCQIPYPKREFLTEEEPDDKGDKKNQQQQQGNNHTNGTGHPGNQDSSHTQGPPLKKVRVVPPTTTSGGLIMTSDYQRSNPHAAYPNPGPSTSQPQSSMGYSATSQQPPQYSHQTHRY
T1 sequence (P24863 whole entry partner): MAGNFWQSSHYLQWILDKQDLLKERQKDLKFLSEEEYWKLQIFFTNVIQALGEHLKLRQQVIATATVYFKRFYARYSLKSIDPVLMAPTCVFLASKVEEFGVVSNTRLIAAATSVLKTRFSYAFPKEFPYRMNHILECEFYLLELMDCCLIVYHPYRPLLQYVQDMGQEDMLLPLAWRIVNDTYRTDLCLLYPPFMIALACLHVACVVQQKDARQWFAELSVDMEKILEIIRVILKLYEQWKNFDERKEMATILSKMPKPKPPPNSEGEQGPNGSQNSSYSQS

SMILES	IC50 [µM]
Cc1n[nH]c2cc(F)c(C(=O)N3CCC[C@H]3c3ccc(Cl)cc3)cc12 [compound 206, [(S)-2-(4-Chloro-phenyl)-pyrrolidin-1-yl]-(6-fluoro-3-methyl-1H-indazol-5-yl)-methanone]	< 0.01
Cc1n[nH]c2ccc(C(=O)N3CC[C@@H]3c3ccc(F)cc3)cc12 [compound 207, [(R)-2-(4-Fluoro-phenyl)-azetidin-1-yl]-(3-methyl-1H-indazol-5-yl)-methanone]	0.01 to 0.1
Nc1n[nH]c2ccc(C(=O)N3CCC[C@H]3c3ccc(C(F)(F)F)cc3)cc12 [compound 208, (3-Amino-1H-indazol-5-yl)-[(S)-2-(4-trifluoromethyl-phenyl)-pyrrolidin-1-yl]-methanone]	0.01 to 0.1
Nc1n[nH]c2ccc(C(=O)N3CCC[C@@H]3c3ccc(C(F)(F)F)cc3)cc12 [compound 209, (3-Amino-1H-indazol-5-yl)-[(R)-2-(4-trifluoromethyl-phenyl)-pyrrolidin-1-yl]-methanone]	0.1 to 1
CSc1n[nH]c2ccc(C(=O)N3CCC[C@H]3c3ccc(Cl)cc3)cc12 [compound 210, [(S)-2-(4-Chloro-phenyl)-pyrrolidin-1-yl]-(3-methylsulfanyl-1H-indazol-5-yl)-methanone]	< 0.01
COC(=O)C1CCN(C(=O)c2cnc3[nH]nc(C)c3c2)C(c2ccccc2)C1 (stereo not shown) [compound 211, 1-(3-Methyl-1H-pyrazolo[3,4-b]pyridine-5-carbonyl)-2-phenyl-piperidine-4-carboxylic acid methyl ester]	0.1 to 1
Cc1n[nH]c2ncc(C(=O)N3CCO[C@@](C)(c4ccc(Cl)cc4)C3)cc12 [compound 214, [(S)-2-(4-Chloro-phenyl)-2-methyl-morpholin-4-yl]-(3-methyl-1H-pyrazolo[3,4-b]pyridin-5-yl)-methanone]	1 to 10
Cc1n[nH]c2ncc(C(=O)N3CCNC(=O)[C@H]3c3ccc(F)cc3)cc12 [compound 215, (R)-3-(4-Fluoro-phenyl)-4-(3-methyl-1H-pyrazolo[3,4-b]pyridine-5-carbonyl)-piperazin-2-one]	1 to 10
O=C(c1ccc2[nH]nc(F)c2c1)N1CCC[C@H]1c1ccc(Cl)cc1 [compound 216, [(S)-2-(4-Chloro-phenyl)-pyrrolidin-1-yl]-(3-fluoro-1H-indazol-5-yl)-methanone]	< 0.01
O=C(c1ccc2[nH]nc(Cl)c2c1)N1CCC[C@H]1c1ccc(Cl)cc1 [compound 217, (3-Chloro-1H-indazol-5-yl)-[(S)-2-(4-chloro-phenyl)-pyrrolidin-1-yl]-methanone]	0.01 to 0.1
O=C(c1ccc2[nH]nc(Cl)c2c1)N1CCC(c2ccc(Cl)cc2)C1 (stereo not shown) [compound 218, (3-Chloro-1H-indazol-5-yl)-[3-(4-chloro-phenyl)-pyrrolidin-1-yl]-methanone]	0.01 to 0.1
O=C(c1ccc2[nH]nc(Cl)c2c1)N1CCCC1c1ccc(C(F)(F)F)cc1 (stereo not shown) [compound 219, (3-Chloro-1H-indazol-5-yl)-[2-(4-trifluoromethyl-phenyl)-pyrrolidin-1-yl]-methanone]	0.01 to 0.1
CS(=O)(=O)c1n[nH]c2ccc(C(=O)N3CCC[C@H]3c3ccc(Cl)cc3)cc12 [compound 220, [(S)-2-(4-Chloro-phenyl)-pyrrolidin-1-yl]-(3-methanesulfonyl-1H-indazol-5-yl)-methanone]	0.01 to 0.1
COc1ccc([C@@H]2CCCN2C(=O)c2cnc3[nH]nc(C)c3c2)cc1 [compound 221, [(S)-2-(4-Methoxy-phenyl)-pyrrolidin-1-yl]-(3-methyl-1H-pyrazolo[3,4-b]pyridin-5-yl)-methanone]	< 0.01
COc1cccc([C@@H]2CCCN2C(=O)c2cnc3[nH]nc(C)c3c2)c1 [compound 222, [(S)-2-(3-Methoxy-phenyl)-pyrrolidin-1-yl]-(3-methyl-1H-pyrazolo[3,4-b]pyridin-5-yl)-methanone]	0.1 to 1
COc1ccc([C@H]2CCCN2C(=O)c2cnc3[nH]nc(C)c3c2)cc1 [compound 223, [(R)-2-(4-Methoxy-phenyl)-pyrrolidin-1-yl]-(3-methyl-1H-pyrazolo[3,4-b]pyridin-5-yl)-methanone]	1 to 10
COc1cccc([C@H]2CCCN2C(=O)c2cnc3[nH]nc(C)c3c2)c1 [compound 224, [(R)-2-(3-Methoxy-phenyl)-pyrrolidin-1-yl]-(3-methyl-1H-pyrazolo[3,4-b]pyridin-5-yl)-methanone]	1 to 10
Cc1n[nH]c2ncc(C(=O)N3CCC[C@H]3c3ccc(Cl)cc3F)cc12 [compound 225, [(S)-2-(4-Chloro-2-fluoro-phenyl)-pyrrolidin-1 yl]-(3-methyl-1H-pyrazolo[3,4-b]pyridin-5-yl)-methanone]	< 0.01
Cc1n[nH]c2ncc(C(=O)N3CCC[C@@H]3c3ccc(Cl)cc3F)cc12 [compound 226, [(R)-2-(4-Chloro-2-fluoro-phenyl)-pyrrolidin-1-yl]-(3-methyl-1H-pyrazolo[3,4-b]pyridin-5-yl)-methanone]	1 to 10
Cc1n[nH]c2ncc(C(=O)N3CCC[C@H]3c3ccc(Cl)c(F)c3)cc12 [compound 227, [(S)-2-(4-Chloro-3-fluoro-phenyl)-pyrrolidin-1-yl]-(3-methyl-1H-pyrazolo[3,4-b]pyridin-5-yl)-methanone]	< 0.01
Cc1n[nH]c2ncc(C(=O)N3CCC[C@@H]3c3ccc(Cl)c(F)c3)cc12 [compound 228, [(R)-2-(4-Chloro-3-fluoro-phenyl)-pyrrolidin-1-yl]-(3-methyl-1H-pyrazolo[3,4-b]pyridin-5-yl)-methanone]	1 to 10
Cc1n[nH]c2ncc(C(=O)N3CCC[C@@H]3c3ccc4cn[nH]c4c3)cc12 [compound 229, [(R)-2-(1H-Indazol-6-yl)-pyrrolidin-1-yl]-(3-methyl-1H-pyrazolo[3,4-b]pyridin-5-yl)-methanone]	1 to 10
Cc1n[nH]c2ncc(C(=O)N3CCC[C@H]3c3ccc4cn[nH]c4c3)cc12 [compound 230, [(S)-2-(1H-Indazol-6-yl)-pyrrolidin-1-yl]-(3-methyl-1H-pyrazolo[3,4-b]pyridin-5-yl)-methanone]	0.01 to 0.1
Cc1n[nH]c2ncc(C(=O)N3C[C@@H](C)C[C@@H]3c3ccc(C(F)(F)F)cc3)cc12 [compound 231, (3-Methyl-1H-pyrazolo[3,4-b]pyridin-5-yl)-[(2R,4S)-4-methyl-2-(4-trifluoromethyl-phenyl)-pyrrolidin-1-yl]-methanone]	1 to 10
Cc1n[nH]c2ncc(C(=O)N3C[C@H](C)C[C@H]3c3ccc(C(F)(F)F)cc3)cc12 [compound 232, (3-Methyl-1H-pyrazolo[3,4-b]pyridin-5-yl)-[(2S,4R)-4-methyl-2-(4-trifluoromethyl-phenyl)-pyrrolidin-1-yl]-methanone]	0.01 to 0.1
Cc1n[nH]c2ncc(C(=O)N3CCC(C(N)=O)CC3c3ccccc3)cc12 (stereo not shown) [compound 235, 1-(3-Methyl-1H-pyrazolo[3,4-b]pyridine-5-carbonyl)-2-phenyl-piperidine-4-carboxylic acid amide]	0.1 to 1

same assay, conditions: IC50 [μM], CDK8 co-expressed with CycC; class symbols

SMILES	IC50 [µM]
Cc1n[nH]c2ccc(C(=O)N3CC[C@@H]3c3ccc(Cl)cc3)cc12 [compound 205, [(R)-2-(4-Chloro-phenyl)-azetidin-1-yl]-(3-methyl-1H-indazol-5-yl)-methanone]	0.1 to 1
CNc1n[nH]c2ccc(C(=O)N3CCC[C@H]3c3ccc(Cl)cc3)cc12 [compound 236, [(S)-2-(4-Chloro-phenyl)-pyrrolidin-1-yl]-(3-methylamino-1H-indazol-5-yl)-methanone]	< 0.01
